What was measured:
Type in all cases: cell-based
A2780/CP cell line = assay: CellTiter-Blue cell viability assay, single agent, A2780/CP; details: Homo sapiens, A2780C/P, A2780/CP cis-platinum resistant cells, 72 hours treatment
From the text: (§1) Cell viability in the presence of varying concentrations of the above listed compounds at different time points was used to assess cytotoxicity and the effect of the compounds on cell proliferation. The SKOV3 cell line was originally isolated in 1973 from the ascitic fluid of a patient with an ovarian cancer. SKOV3 is a hypodiploid human cell line. SKOV3 cells are resistant to tumor necrosis factor and to several cytotoxic drugs including diphtheria toxin, cis-platinum and adriamycin. The A2780 cell line is a human ovarian adenocarcinoma cell line originally derived from a biopsy from an untreated patient. The A2780/CP cell line is a line derived from the A2780 cell line selected for resistance to cis-platinum.
(§2) Cell viability was measured by the CellTiter-Blue® cell viability assay Promega (Madison, Wis.). This procedure measures the conversion of the indicator dye (resazurin) to resorufin, an indicator of cell viability. Following treatment, growth media was removed and cells were incubated with 20 μl of CellTiter-Blue® Reagent and growth media for 1-4 hours at 37° C. Fluorescence values were measured at 535/590 nm using a Beckman-Coulter DTX-880 microplate reader.
(§3) Cells were grown to 70% confluency, trypsinized, counted, and seeded in 96 well flat-bottom plates at a final concentration of 2.5×10^3-5×10^3 cells/well (Day 0). Cells were allowed to incubate in growth media for 24 hours to allow for maximum adhesion. Treatment with the test agents or standard agents began on Day 1 and continued for 72 hours. At the 72 hour timepoint, treatment containing media was removed. Viable cell numbers are quantified by the CellTiter-Blue® cell viability assay as described above. Experiments were repeated at least twice with the same concentrations to determine growth inhibitory activity. Results from these studies were used to calculate an IC50 value (concentration of drug that inhibits cell growth by 50 percent of control) for each compound.
(§4) For single agent and combination studies, data from each experiment was collected and expressed as % Cell Expansion using the following calculation: % Cell Expansion=(ftest/fvehicle)×100
(§5) Where ftest is the fluorescence of the tested sample, and fvehicle is the fluorescence of the vehicle in which the drug is dissolved. Dose response graphs and IC50 values were generated using Prism 4 software (GraphPad) using the following equation: […]

SKOV3 cell line = assay: CellTiter-Blue cell viability assay, single agent, SKOV3; details: Homo sapiens, SK-OV-3, SKOV3 ovarian cancer cells, 72 hours treatment
From the text: as §1, §2, §3, §4, §5

A2780 cell line = assay: CellTiter-Blue cell viability assay, single agent, A2780; details: Homo sapiens, A2780 ovarian adenocarcinoma cells, 72 hours treatment
From the text: as §1, §2, §3, §4, §5

Row | Compound | IC50 (A2780/CP cell line) [nM] | IC50 (SKOV3 cell line) [nM] | IC50 (A2780 cell line) [nM]
1 | CC(C)C(C(=O)Nc1ccc(C(=O)NO)cc1)c1ccc(Cl)cc1 (stereo not shown) [Compound 12, 4-(2-(4-chlorophenyl)-3-methylbutanamido)-N-hydroxybenzamide] | 3 | 40 | 30
2 | O=C(Cc1ccccc1)Nc1ncc(C(=O)NO)s1 [Compound 5, N-hydroxy-2-(2-phenylacetamido)thiazole-5-carboxamide] | 1600 | 2100 | 300
3 | CCC(C(=O)Nc1ncc(C(=O)NO)s1)c1ccc(OC)cc1 (stereo not shown) [Compound 8, N-hydroxy-2-(2-(4-methoxyphenyl)butanamido)thiazole-5-carboxamide] | < 0.1 | < 0.1 | < 0.1
4 | CCC(C(=O)Nc1ccc(C(=O)NO)cc1)c1ccc(-c2ccccc2)cc1 (stereo not shown) [Compound 26, 4-(2-(biphenyl-4-yl)butanamido)-N-hydroxybenzamide] | 1.7 | 1.1 | 0.3
5 | CC(C)(Cc1ccccc1)C(=O)Nc1ncc(C(=O)NO)s1 [Compound 11, 2-(2,2-dimethyl-3-phenylpropanamido)-N-hydroxythiazole-5-carboxamide] | 3800 | 7500 | 3800
6 | CCC(C(=O)Nc1ncc(C(=O)NO)s1)c1ccc(-c2cncnc2)cc1 (stereo not shown) [Compound 18, N-hydroxy-2-(2-(4-(pyrimidin-5-yl)phenyl)butanamido)thiazole-5-carboxamide] | 140 | 100 | 440
7 | COCCC(C(=O)Nc1ncc(C(=O)NO)s1)c1ccc(-c2ccccc2)cc1 (stereo not shown) [Compound 24, 2-(2-(biphenyl-4-yl)-4-methoxybutanamido)-N-hydroxythiazole-5-carboxamide] | 17 | 30 | 20
8 | CC(C)C(C(=O)Nc1ncc(C(=O)NO)s1)c1ccc(Cl)cc1 (stereo not shown) [Compound 10, 2-(2-(4-chlorophenyl)-3-methylbutanamido)-N-hydroxythiazole-5-carboxamide] | 6.2 | 4 | 1.7
9 | O=C(NO)c1cnc(NC(=O)C2(c3ccccc3)CC2)s1 [Compound 3, N-hydroxy-2-(1-phenylcyclopropanecarboxamido)thiazole-5-carboxamide] | 7500 | 4100 | 1200
10 | CCC(C(=O)Nc1ccc(C(=O)NO)cc1)c1ccc(Br)cc1 (stereo not shown) [Compound 25, 4-(2-(4-bromophenyl)butanamido)-N-hydroxybenzamide] | 20 | 100 | 1.1
11 | O=C(CCc1ccccc1)Nc1ncc(C(=O)NO)s1 [Compound 6, N-hydroxy-2-(3-phenylpropanamido)thiazole-5-carboxamide] | 3200 | 500 | 300
12 | CCC(C(=O)Nc1ccc(C(=O)NO)cc1)c1ccc(OC)cc1 (stereo not shown) [Compound 15, N-hydroxy-4-(2-(4-methoxyphenyl)butanamido)benzamide] | 0.3 | 20 | 0.04
13 | CC(C)C(C(=O)Nc1ncc(C(=O)NO)s1)c1ccc(O)cc1 (stereo not shown) [Compound 21, N-hydroxy-2-(2-(4-hydroxyphenyl)-3-methylbutanamido)thiazole-5-carboxamide] | 40 | 20 | 60
14 | COCCC(C(=O)Nc1ccc(C(=O)NO)cc1)c1ccccc1 (stereo not shown) [Compound 27, N-hydroxy-4-(4-methoxy-2-phenylbutanamido)benzamide] | 70 | 900 | 16
15 | CC(C)(C(=O)Nc1ncc(C(=O)NO)s1)c1ccccc1 [Compound 4, N-hydroxy-2-(2-methyl-2-phenylpropanamido)thiazole-5-carboxamide] | 7500 | 1300 | 900

The remaining lines, values ahead:

Row | IC50 (A2780/CP cell line) [nM] | IC50 (SKOV3 cell line) [nM] | IC50 (A2780 cell line) [nM] | Compound
16 | 0.9 | 0.2 | < 0.1 | CCC(C(=O)Nc1ncc(C(=O)NO)s1)c1ccc(-c2ccccc2)cc1 (stereo not shown) [Compound 17, 2-(2-(biphenyl-4-yl)butanamido)-N-hydroxythiazole-5-carboxamide]
17 | 300 | 30 | 600 | CCC(C(=O)Nc1ncc(C(=O)NO)s1)c1cccc(OC)c1 (stereo not shown) [Compound 22, N-hydroxy-2-(2-(3-methoxyphenyl)butanamido)thiazole-5-carboxamide]
18 | 8.7 | 80 | 2.4 | COCCC(C(=O)Nc1ncc(C(=O)NO)s1)c1ccccc1 (stereo not shown) [Compound 14, N-hydroxy-2-(4-methoxy-2-phenylbutanamido)thiazole-5-carboxamide]
19 | 500 | 2300 | 100 | CCC(C(=O)Nc1ncc(C(=O)NO)s1)c1ccccc1OC (stereo not shown) [Compound 23, N-hydroxy-2-(2-(2-methoxyphenyl)butanamido)thiazole-5-carboxamide]
20 |  | 40 |  | CC(C)C(C(=O)Nc1ncc(C(=O)NO)s1)c1ccccc1 (stereo not shown) [Compound 1, N-hydroxy-2-(3-methyl-2-phenylbutanamido)thiazole-5-carboxamide]
21 | 100 | 4.3 | 2.4 | CCC(C(=O)Nc1ncc(C(=O)NO)s1)c1cccc(F)c1 (stereo not shown) [Compound 20, 2-(2-(3-fluorophenyl)butanamido)-N-hydroxythiazole-5-carboxamide]
22 | 3 | 8.9 | < 0.1 | CCC(C(=O)Nc1ncc(C(=O)NO)s1)c1ccc(F)cc1 (stereo not shown) [Compound 19, 2-(2-(4-fluorophenyl)butanamido)-N-hydroxythiazole-5-carboxamide]
23 | 4 | 46 | 0.5 | CCC(C(=O)Nc1ncc(C(=O)NO)s1)c1ccccc1 (stereo not shown) [Compound 2, N-hydroxy-2-(2-phenylbutanamido)thiazole-5-carboxamide]
24 | 0.08 | 2.5 | 0.5 | CCC(C(=O)Nc1ncc(C(=O)NO)s1)c1ccc(Br)cc1 (stereo not shown) [Compound 13, 2-(2-(4-bromophenyl)butanamido)-N-hydroxythiazole-5-carboxamide]
25 | 4.8 | 30 | 30 | CC(C(=O)Nc1ncc(C(=O)NO)s1)c1ccccc1 (stereo not shown) [Compound 9, N-hydroxy-2-(2-phenylpropanamido)thiazole-5-carboxamide]
26 | 20 | 70 | 40 | COC(C(=O)Nc1ncc(C(=O)NO)s1)c1ccccc1 (stereo not shown) [Compound 7, N-hydroxy-2-(2-methoxy-2-phenylacetamido)thiazole-5-carboxamide]
